Measured values: US5336759A, “Biologically active peptide derived from frog (frog CNP)” (priority 1990, dated 1994)
Read-outs that look alike come from different tables or passages of the source. Bridge positions count the residues as written; N and C are the ends. Ends that are not written are not given here. Peptide text beside a SMILES is read from it.

Assays:
[1] = test system: chicken rectum
Experimental: Relaxant activity in chicken rectum was measured in accordance with the method of […] and Currie ([…]. and Matsuo, H., Biochem. Biophys. Res. Commun., 118, 131-139, 1984; Currie, […]., Cole, […]. and Needleman, P. Science, 221, 71-73, 1983). The values are averages of six repeats. […] Although fCNP lacked the tail sequence at the C-terminal which had been considered to be important for analog peptides in displaying biological activities such as diuretic action (Watanabe, T. X., Noda, Y., Chino […]. and Imai, M. Eur. J. […] Relative activity is defined as the activity of equimolar amount of peptides when the activity of α-hANP is 100.

[2] = test system: anesthetized rats; experiment: Diuretic and natriuretic action in anesthetized rats; format: in vivo, rat; conditions: for excretion Cl- / excretion K+ / excretion Na+ / excretion urine: urine collected 15 min before and after injection, Means±S.E.M., three rats
Experimental: (§1) Diuretic action of fCNP was measured in accordance with the method described in Kangawa et al and Sudoh et al (Kangawa, K. et al., Biochem. Biophys. Res. Commun., 118, 131-139, 1984; Sudoh, T., Kangawa, K., Minamino, N. and Matsuo, H. Nature, 332, 78-81 , 1988). Male SD rats (weight 300-400 g) were anesthetized by intraperitoneally receiving 50 mg/kg pentobarbital, and a tracheal cannula (PE-240, Cray Adams) was provided to secure an airway. A cannula for measuring the blood pressure (PE-50) was inserted into one of the femoral arteries, and Ringer solution was injected through a cannula (PE-10) inserted into the femoral venous, at a constant rate of 1.8 ml/hr. Urine was collected into a test tube through a bladder cannula of silastic tube (inside diameter 0.02 inch, outside diameter 0.037 inch, Dow Corning). The collection of urine was carried out for 15 min before the administration of the peptides, at 5 min intervals after the administration till 15 min, and then at appropriate time intervals. The effect of the peptides was measured by comparing the amount of the urine samples and the concentration of the electrolyte in the urine samples, as well as by the change of the blood pressure.
In the above assay, a predetermined amount of fCNP was dissolved in 0.1N acetic acid, and neutralized with one tenth volume of 1.3M Tris solution. Then, the solution was diluted with 50 μl of a sterile physiological water, and administered through the cervical vein.
In Table 3, diuretic and natriuretic responses are shown in terms of the amount of the urine, the percentages in the decreases of the excretion of Na^+, K^+ and Cl^- (Means±S.E.M.), in which urine samples were collected separately over 15 min before and after the intravenous injection of the peptides to anesthetized rats. Three rats were used for each peptide.

[3] = test system: anesthetized rats; experiment: Vasodepressor action (blood pressure) in anesthetized rats; format: in vivo, rat; parameters: decrease of blood pressure at the contract phase of heart: unit not given here
Experimental: as §1, with “Kangawa” left out, “([…].” for “(Kangawa, K.”, “[…].,” for “T., Kangawa, K.,”, “pressure. In the above assay, a predetermined amount of fCNP was dissolved in 0.1N acetic acid, and neutralized with one tenth volume of 1.3M Tris solution. […]” for “pressure.”

[4] = relaxant activity of equimolar amount of peptide, activity of α-hANP = 100, averages of six repeats

Compound: CC[C@H](C)[C@@H]1NC(=O)[C@H](CCCNC(=N)N)NC(=O)[C@H](CC(=O)O)NC(=O)[C@H](CC(C)C)NC(=O)[C@H](CCCCN)NC(=O)[C@H](C(C)C)NC(=O)CNC(=O)[C@H](Cc2ccccc2)NC(=O)[C@@H](NC(=O)CNC(=O)[C@H](CCCNC(=N)N)NC(=O)[C@H](CO)NC(=O)[C@H](Cc2ccc(O)cc2)NC(=O)CN)CSSC[C@@H](C(=O)O)NC(=O)CNC(=O)[C@H](CC(C)C)NC(=O)CNC(=O)[C@H](CO)NC(=O)[C@H](Cc2ccccc2)NC(=O)[C@H](C)NC(=O)CNC1=O [fCNP] (H-GYSRGCFGVKLDRIGAFSGLGC-OH; disulfide 6-22)
- relative activity [1]: 321
- relaxant activity in chicken rectum (in words) [1]: strong relaxant activity which was comparable to pCNP
- relaxant activity in chicken rectum (in words) ([1]; listed as synthetic fCNP): positive relaxant activity
- relaxant activity, times higher than fANP-21 ([1]; relative to fANP-21): ~7 times
- relaxant activity, times higher than α-hANP ([1]; relative to α-hANP): about 3 times
- excretion Cl- ([2]; 30 μg/kg intravenous): 193 ± 50%
- excretion K+ ([2]; 30 μg/kg intravenous): 163 ± 54%
- excretion Na+ ([2]; 30 μg/kg intravenous): 184 ± 26%
- excretion urine ([2]; 30 μg/kg intravenous): 192 ± 51%
- excretion Cl- ([2]; 100 μg/kg intravenous): 251 ± 43%
- excretion K+ ([2]; 100 μg/kg intravenous): 217 ± 58%
- excretion Na+ ([2]; 100 μg/kg intravenous): 344 ± 36%
- excretion urine ([2]; 100 μg/kg intravenous): 315 ± 24%
- excretion Cl- ([2]; 300 μg/kg intravenous): 369 ± 6%
- excretion K+ ([2]; 300 μg/kg intravenous): 210 ± 33%
- excretion Na+ ([2]; 300 μg/kg intravenous): 428 ± 29%
- excretion urine ([2]; 300 μg/kg intravenous): 410 ± 27%
- diuretic and natriuretic actions compared to that of α-hANP ([2]; ratio to α-hANP, anesthetized rats): about 1/100
- decrease of blood pressure at the contract phase of heart ([3]; 10 nmol of fCNP, over a period of 30 min, typical experiment): 25-30
- vasodepressor action (in words) ([3]; anesthetized rats): weak vasodepressor action

Compound: pBNP-26: diuretic peptide; B-type (brain) natriuretic peptide (DSGCFGRRLDRIGSLSGLGCNVLRRY; ends and bridges not checked; cysteine pairing not given here; UniProt P07634 106-131, looked up) [reference compound]
- relative activity [1, 4]: 270

Compound: α-hANP: A-type (atrial) natriuretic peptide used as reference, activity set to 100 (SLRRSSCFGGRMDRIGAQSGLGCNSFRY; ends and bridges not checked; cysteine pairing not given here; UniProt P01160 124-151, looked up) [reference compound]
- relative activity [1, 4]: 100
- excretion Cl- ([2]; 3.0 μg/kg intravenous): 445 ± 67%
- excretion K+ ([2]; 3.0 μg/kg intravenous): 291 ± 19%
- excretion Na+ ([2]; 3.0 μg/kg intravenous): 572 ± 84%
- excretion urine ([2]; 3.0 μg/kg intravenous): 461 ± 51%
